Experimental data taken from patent US20140187548A1, “6 SUBSTITUTED IMIDAZOPYRAZINES FOR USE AS MPS-1 AND TKK INHIBITORS IN THE TREATMENT OF HYPERPROLIFERATIVE DISORDERS” (BAYER INTELLECTUAL PROPERTY GMBH, priority 2010, published 2014).

These compounds were tested against T1, human kinase Mps-1 (Homo sapiens, UniProt P33981) (assay: Mps-1 kinase assay (TR-FRET)). Settings: N-terminally GST-tagged human full length recombinant Mps-1; 10 μM ATP; 1 μM peptide substrate; 15 min pre-incubation; 60 min at 22° C.
T1 construct: N-terminally GST-tagged human full length recombinant Mps-1 kinase; GST (N); purchased Invitrogen, Karslruhe, Germany PV4071
T1 sequence (P33981 1-857): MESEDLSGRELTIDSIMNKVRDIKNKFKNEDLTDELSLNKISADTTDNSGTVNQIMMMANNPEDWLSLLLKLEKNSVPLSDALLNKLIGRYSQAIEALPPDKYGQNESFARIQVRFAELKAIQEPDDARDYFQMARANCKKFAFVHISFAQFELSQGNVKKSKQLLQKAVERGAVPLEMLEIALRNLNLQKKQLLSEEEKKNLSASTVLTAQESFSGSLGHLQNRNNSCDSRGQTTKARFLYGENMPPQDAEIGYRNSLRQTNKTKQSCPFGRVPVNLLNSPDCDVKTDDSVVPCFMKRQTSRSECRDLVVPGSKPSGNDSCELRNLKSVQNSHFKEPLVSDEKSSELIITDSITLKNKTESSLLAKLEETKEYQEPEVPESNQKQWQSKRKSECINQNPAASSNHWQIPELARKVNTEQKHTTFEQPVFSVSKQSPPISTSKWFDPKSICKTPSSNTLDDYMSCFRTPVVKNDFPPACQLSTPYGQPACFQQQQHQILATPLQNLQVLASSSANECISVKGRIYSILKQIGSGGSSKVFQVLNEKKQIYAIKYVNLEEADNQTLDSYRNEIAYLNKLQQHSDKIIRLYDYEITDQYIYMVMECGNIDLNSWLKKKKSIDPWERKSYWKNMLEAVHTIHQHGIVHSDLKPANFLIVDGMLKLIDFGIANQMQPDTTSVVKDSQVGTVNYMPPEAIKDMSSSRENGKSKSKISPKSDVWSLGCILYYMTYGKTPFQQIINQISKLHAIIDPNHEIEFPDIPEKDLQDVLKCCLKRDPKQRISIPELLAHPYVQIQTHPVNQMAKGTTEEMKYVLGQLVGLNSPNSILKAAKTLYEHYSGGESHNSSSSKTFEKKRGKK
Assay type: biochemical
Outline: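 N-terminally GST-tagged full-length recombinant human Mps-1, about 1 nM final, phosphorylates a biotinylated peptide. Product detected by TR-FRET from Eu-anti-phospho-Ser/Thr antibody to streptavidin-XLent after 1 h at 22° C.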
Work on `Cc1cc(-c2cnc3c(NCCC(F)(F)F)nc(-c4ccc(F)cc4)cn23)ccc1C(=O)NC1CC1` [Example 10-1, N-cyclopropyl-4-{6-(4-fluorophenyl)-8-[(3,3,3-trifluoropropyl)amino]imidazo[1,2-a]pyrazin-3-yl}-2-methylbenzamide] yielded an IC50 of 3.6 nM. `Cc1cc(-c2cnc3c(NCC4CCCO4)nc(-c4ccc(F)cc4)cn23)ccc1C(=O)NC1CC1` (stereo not drawn) [Example 10-2, N-cyclopropyl-4-{6-(4-fluorophenyl)-8-[(tetrahydrofuran-2-ylmethyl)amino]imidazo [1,2-a]pyrazin-3-yl}-2-methylbenzamide] was tested, and the IC50 was 9.1 nM. `Cc1cc(-c2cnc3c(NCC(C)C)nc(-c4ccc(F)cc4)cn23)ccc1C(=O)NC1CC1` [Example 10-3, N-cyclopropyl-4-{6-(4-fluorophenyl)-8-[(2-methylpropyl)amino]imidazo[1,2-a]pyrazin-3-yl}-2-methylbenzamide] gave an IC50 of 5.1 nM. With `Cc1cc(-c2cnc3c(NCCC(C)CO)nc(-c4ccc(F)cc4)cn23)ccc1C(=O)NC1CC1` (stereo not drawn) [Example 10-5, N-cyclopropyl-4-{6-(4-fluorophenyl)-8-[(4-hydroxy-3-methylbutyl)amino]imidazo[1,2-a]pyrazin-3-yl}-2-methyl-benzamide] the IC50 was 4.8 nM. `Cc1cc(-c2cnc3c(NCC4CCC(C)(O)CC4)nc(-c4ccc(F)cc4)cn23)ccc1C(=O)NC1CC1` (stereo not drawn) [Example 10-7, N-cyclopropyl-4-[6-(4-fluorophenyl)-8-{[(4-hydroxy-4-methylcyclo-hexyl)methyl]amino}imidazo[1,2-a]pyrazin-3-yl]-2-methylbenzamide] showed an IC50 of 5.4 nM. `Cc1cc(-c2cnc3c(NCC4CCN(C)C4)nc(-c4ccc(F)cc4)cn23)ccc1C(=O)NC1CC1` (stereo not drawn) [Example 10-8, N-cyclopropyl-4-[6-(4-fluorophenyl)-8-{[(1-methylpyrrolidin-3-yl)methyl]amino}imidazo [1,2-a]pyrazin-3-yl]-2-methylbenzamide] showed an IC50 of 119 nM. With `CCN1CCC(CNc2nc(-c3ccc(F)cc3)cn3c(-c4ccc(C(=O)NC5CC5)c(C)c4)cnc23)C1` (stereo not drawn) [Example 10-9, N-cyclopropyl-4-[8-{[(1-ethylpyrrolidin-3-yl)methyl]amino}-6-(4-fluorophenyl)imidazo [1,2-a]pyrazin-3-yl]-2-methylbenzamide] the IC50 was 63.4 nM. With `Cc1cc(-c2cnc3c(NCCC4CC4)nc(-c4ccc(F)cc4)cn23)ccc1C(=O)NC1CC1` [Example 10-10, N-cyclopropyl-4-{8-[(2-cyclopropylethyl)amino]-6-(4-fluorophenyl)imidazo [1,2-a]pyrazin-3-yl}-2-methylbenzamide] the IC50 was 16.6 nM. `Cc1cc(-c2cnc3c(NCC4CCOC4)nc(-c4ccc(F)cc4)cn23)ccc1C(=O)NC1CC1` (stereo not drawn) [Example 10-11, N-cyclopropyl-4-{6-(4-fluorophenyl)-8-[(tetrahydrofuran-3-yl-methyl)amino]imidazo [1,2-a]pyrazin-3-yl}-2-methylbenzamide] was tested, and the IC50 was 3.3 nM. `Cc1cc(-c2cnc3c(NCCCC(C)O)nc(-c4ccc(F)cc4)cn23)ccc1C(=O)NC1CC1` (stereo not drawn) [Example 10-12, N-cyclopropyl-4-{6-(4-fluorophenyl)-8-[(4-hydroxypentyl)amino]imidazo[1,2-a]pyrazin-3-yl}-2-methylbenzamide] was tested, and the IC50 was 7.1 nM. For `Cc1cc(-c2cnc3c(NCC4CC(=O)N(C)C4)nc(-c4ccc(F)cc4)cn23)ccc1C(=O)NC1CC1` (stereo not drawn) [Example 10-13, N-cyclopropyl-4-[6-(4-fluorophenyl)-8-{[(1-methyl-5-oxopyrrolidin-3-yl)methyl]amino}imidazo[1,2-a]pyrazin-3-yl]-2-methylbenzamide], the IC50 was 7.2 nM. With `Cc1cc(-c2cnc3c(NCC4CCOCC4)nc(-c4ccc(F)cc4)cn23)ccc1C(=O)NC1CC1` [Example 10-14, N-cyclopropyl-4-{6-(4-fluorophenyl)-8-[(tetra-hydro-2H-pyran-4-ylmethyl)amino]imidazo [1,2-a]pyrazin-3-yl}-2-methylbenzamide] the IC50 was 3.3 nM. Work on `CCC(C)c1cn2c(-c3ccc(C(=O)NC4CC4)cc3)cnc2c(NCC(C)C)n1` (stereo not drawn) [Example 11-1, 4-{6-(butan-2-yl)-8-[(2-methylpropyl)amino]imidazo[1,2-a]pyrazin-3-yl}-N-cyclopropylbenzamide] yielded an IC50 of 5.4 nM. Compound `CC(C)CNc1nc(C(C)C)cn2c(-c3ccc(C(=O)NC4CC4)cc3)cnc12` [Example 11-2, N-cyclopropyl-4-{8-[(2-methylpropyl)amino]-6-(propan-2-yl)imidazo[1,2-a]pyrazin-3-yl} benzamide] has an IC50 of 7.1 nM. Work on `CCCc1cn2c(-c3ccc(C(=O)NC4CC4)cc3)cnc2c(NCC(C)C)n1` [Example 11-3, N-cyclopropyl-4-{8-[(2-methylpropyl)amino]-6-propylimidazo [1,2-a]pyrazin-3-yl}benzamide] yielded an IC50 of 5.4 nM.
